From patent publication US9150526B2, “Biaryl-propionic acid derivatives and their use as pharmaceuticals” (SANOFI, priority 2013, dated 2015)

System: Recombinant human cathepsin A
Assay: Cathepsin A inhibitory activity (Bodipy FL-bradykinin substrate, microfluidic capillary electrophoresis)
Assay type: biochemical
Settings: read-out: CATH A IC50
Method: Pharmacological Tests a) Cathepsin a Inhibitory Activity
Recombinant human cathepsin A (residues 29-480, with a C-terminal 10-His tag; R&D Systems, #1049-SE) was proteolytically activated with recombinant human cathepsin L (R&D Systems, #952-CY). Briefly, cathepsin A was incubated at 10 μg/ml with cathepsin L at 1 μg/ml in activation buffer (25 mM 2-(morpholin-4-yl)-ethanesulfonic acid (MES), pH 6.0, containing 5 mM dithiothreitol (DTT)) for 15 min at 37° C.
The activated cathepsin A was diluted in assay buffer (25 mM MES, pH 5.5, containing 5 mM DTT) and mixed with the test compound (dissolved in assay buffer containing (v/v) 3% DMSO) or, in the control experiments, with the vehicle in a multiple assay plate. After incubation for 15 min at room temperature, as substrate then bradykinin carrying an N-terminal ®Bodipy FL (4,4-difluoro-5,7-dimethyl-4-bora-3a,4a-diaza-s-indacene-3-propionyl) label (JPT Peptide Technologies GmbH; dissolved in assay buffer) was added to the mixture. The final concentration of cathepsin A was 833 ng/ml and the final concentration of labeled bradykinin 2 μM. After incubation for 15 min at room temperature the reaction was stopped by the addition of stop buffer (130 mM 2-(4-(2-hydroxy-ethyl)-piperazin-1-yl)-ethanesulfonic acid, pH 7.4, containing (v/v) 0.013% ®Triton X-100, 0.13% Coating Reagent 3 (Caliper Life Sciences), 6.5% DMSO and 20 μM ebelactone B (Sigma, # E0886)).
Uncleaved substrate and product were then separated by a microfluidic capillary electrophoresis on a LabChip® 3000 Drug Discovery System (12-Sipper-Chip; Caliper Life Sciences) and quantified by determination of the respective peak areas. Substrate turnover was calculated by dividing product peak area by the sum of substrate and product peak areas, and the enzyme activity and the inhibitory effect of the test compound thus quantified.

Row | Structure (SMILES) | IC50 [nM]
1 | COc1ccc(Cl)cc1-c1cccc(C(CC(=O)O)c2nc(C)c(C)s2)c1 (centres unmarked) [compound 19] | 657
2 | COc1ccc(C)cc1-c1cccc(C(CC(=O)O)c2ncc(C)s2)c1 (centres unmarked) [compound 53] | 85
3 | COc1ccc(F)cc1-c1cc(C(CC(=O)O)c2nnc(C)o2)cc(C(F)(F)F)c1 (centres unmarked) [compound 218] | 12
4 | COc1cccc(OC)c1-c1cccc(C(CC(=O)O)c2nccs2)c1 (centres unmarked) [compound 20] | 30
5 | CCOc1ccccc1-c1cc(Cl)cc(C(CC(=O)O)c2nnc(C)o2)c1 (centres unmarked) [compound 177] | 24
6 | COc1ccc(OC(F)(F)F)cc1-c1cccc(C(CC(=O)O)c2nccs2)c1 (centres unmarked) [compound 34] | 389
7 | COc1ccc(-c2cc(Cl)cc(C(CC(=O)O)c3nnc(C)o3)c2)c(OC)c1 (centres unmarked) [compound 172] | 33
8 | COc1cccc(CO)c1-c1cc(Cl)cc(C(CC(=O)O)c2ncc(C)s2)c1 (centres unmarked) [compound 82] | 52
9 | COc1cccc(C#N)c1-c1cc(Cl)cc(C(CC(=O)O)c2nnc(C)o2)c1 (centres unmarked) [compound 156] | 104
10 | COc1ccccc1-c1cncc(C(CC(=O)O)c2nnc(C)o2)c1 (centres unmarked) [compound 190] | 5800
11 | COc1ccc(C)cc1-c1cc(C(CC(=O)O)c2nnc(C)o2)cc(C(F)(F)F)c1 (centres unmarked) [compound 202] | 17
12 | COc1ccc(Cl)cc1-c1cc(Cl)cc(C(CC(=O)O)c2ncc(C)s2)c1 (centres unmarked) [compound 8] | 34
13 | COc1c(F)cccc1-c1cccc(C(CC(=O)O)c2nccs2)c1 (centres unmarked) [compound 42] | 1040
14 | COc1cc(F)ccc1-c1cccc(C(CC(=O)O)c2nccs2)c1 (centres unmarked) [compound 37] | 503
15 | COc1ccc(OC(F)(F)F)cc1-c1cncc(C(CC(=O)O)c2nnc(C)o2)c1 (centres unmarked) [compound 197] | 4760
16 | CCOc1ccccc1-c1cc(Cl)cc(C(CC(=O)O)c2ncc(C)s2)c1 (centres unmarked) [compound 80] | 47
17 | COc1cc(C)cc(OC)c1-c1cc(Cl)cc(C(CC(=O)O)c2nnc(C)o2)c1 (centres unmarked) [compound 155] | 8
18 | COc1ccc(C(C)C)cc1-c1cc(Cl)cc(C(CC(=O)O)c2nnc(C)o2)c1 (centres unmarked) [compound 153] | 25
19 | COc1ccc(CO)cc1-c1cccc(C(CC(=O)O)c2ncc(C)s2)c1 (centres unmarked) [compound 57] | 131
20 | COc1ccc(C(C)C)cc1-c1cccc([C@@H](CC(=O)O)c2nnc(C)o2)c1 [compound 185] | 27
21 | COc1ccc(C(C)(C)C)cc1-c1cc(C(CC(=O)O)c2nnc(C)o2)cc(C(F)(F)F)c1 (centres unmarked) [compound 203] | 17

Row | Structure (SMILES) | IC50 [nM]
22 | COc1ccc(OC)c(-c2cccc(C(CC(=O)O)c3ncc(C)s3)c2)c1OC (centres unmarked) [compound 52] | 56
23 | CCOc1ccc(C)cc1-c1cc(F)cc(C(CC(=O)O)c2ncco2)c1 (centres unmarked) [compound 117] | 155
24 | COc1ccc(OC(F)(F)F)cc1-c1cccc(C(CC(=O)O)c2ncc(C)s2)c1 (centres unmarked) [compound 60] | 269
25 | COc1c(C)cccc1-c1cc(Cl)cc(C(CC(=O)O)c2ncc(C)s2)c1 (centres unmarked) [compound 93] | 164
26 | COc1cc(C)cc(OC)c1-c1cc(Cl)cc(C(CC(=O)O)c2ncc(C)s2)c1 (centres unmarked) [compound 74] | 19
27 | COc1ccc(OC)c(-c2cc(Cl)cc(C(CC(=O)O)c3ncc(C)s3)c2)c1 (centres unmarked) [compound 76] | 28
28 | COc1cccc(F)c1-c1cccc(C(CC(=O)O)c2nccs2)c1 (centres unmarked) [compound 26] | 148
29 | COc1cccc(F)c1-c1cc(F)cc(C(CC(=O)O)c2ncc(C)s2)c1 (centres unmarked) [compound 101] | 56
30 | COc1ccc(C(C)C)cc1-c1cc(Cl)cc(C(CC(=O)O)c2ncc(C)s2)c1 (centres unmarked) [compound 87] | 93
31 | COc1cccc(CO)c1-c1cc(C(CC(=O)O)c2nnc(C)o2)cc(C(F)(F)F)c1 (centres unmarked) [compound 219] | 73
32 | COc1ccccc1-c1cccc(C(CC(=O)O)c2nccs2)c1 (centres unmarked) [compound 17] | 154
33 | COc1c(C)cccc1-c1cccc(C(CC(=O)O)c2nccs2)c1 (centres unmarked) [compound 40] | 844
34 | COc1ccc2c(c1-c1cc(C(CC(=O)O)c3nnc(C)o3)cc(C(F)(F)F)c1)OC(C)(C)C2 (centres unmarked) [compound 207] | 10
35 | COc1ccc(C(C)C)cc1-c1cccc(C(CC(=O)O)c2nnc(C)o2)c1 (centres unmarked) [compound 64] | 49
36 | COc1c(F)cc(F)cc1-c1cccc(C(CC(=O)O)c2ncc(C)s2)c1 (centres unmarked) [compound 61] | 367
37 | COc1ccccc1-c1cccc(C(CC(=O)O)c2nnc(C)o2)c1 (centres unmarked) [compound 140] | 61
38 | COc1cccc(F)c1-c1cc(C(CC(=O)O)c2nnc(C)o2)cc(C(F)(F)F)c1 (centres unmarked) [compound 212] | 8
39 | COc1cccc(Cl)c1-c1cc(F)cc(C(CC(=O)O)c2ncc(C)s2)c1 (centres unmarked) [compound 105] | 96
40 | COc1ccccc1-c1cc(F)cc(C(CC(=O)O)c2ncc(C)s2)c1 (centres unmarked) [compound 110] | 116
41 | COc1cc(C)cc(OC)c1-c1cccc(C(CC(=O)O)c2ncco2)c1 (centres unmarked) [compound 16] | 49
42 | COc1cccc(C#N)c1-c1cc(F)cc(C(CC(=O)O)c2nnc(C)o2)c1 (centres unmarked) [compound 163] | 446

Row | Structure (SMILES) | IC50 [nM]
43 | COc1ccc(C)cc1-c1ccc(OC)c(C(CC(=O)O)c2ncc(C)s2)c1 (centres unmarked) [compound 67] | 9690
44 | COc1ccc(F)cc1-c1cccc(C(CC(=O)O)c2nnc(C)o2)c1 (centres unmarked) [compound 139] | 60
45 | CCOc1ccccc1-c1cccc(C(CC(=O)O)c2nnc(C)o2)c1 (centres unmarked) [compound 144] | 91
46 | O=C(O)CC(c1cccc(-c2ccccc2OC(F)(F)F)c1)c1nccs1 (centres unmarked) [compound 43] | 1230
47 | COc1c(C)cccc1-c1cccc(C(CC(=O)O)c2nnc(C)o2)c1 (centres unmarked) [compound 151] | 571
48 | COc1ccc(S(C)(=O)=O)cc1-c1cc(Cl)cc(C(CC(=O)O)c2nnc(C)o2)c1 (centres unmarked) [compound 170] | 109
49 | COc1cc(Cl)ccc1-c1cccc(C(CC(=O)O)c2nccs2)c1 (centres unmarked) [compound 38] | 590
50 | COc1ccc(OC(F)(F)F)cc1-c1cc(F)cc(C(CC(=O)O)c2ncco2)c1 (centres unmarked) [compound 122] | 222
51 | COc1ccc(C(C)(C)C#N)cc1-c1cc(F)cc(C(CC(=O)O)c2nnc(C)o2)c1 (centres unmarked) [compound 222] | 4
52 | COc1ccccc1-c1cc(Cl)cc(C(CC(=O)O)c2ncc(C)s2)c1 (centres unmarked) [compound 75] | 21
53 | COc1cc(F)ccc1-c1cc(C(CC(=O)O)c2nnc(C)o2)cc(C(F)(F)F)c1 (centres unmarked) [compound 200] | 35
54 | COc1cc(C)cc(OC)c1-c1cncc(C(CC(=O)O)c2nnc(C)o2)c1 (centres unmarked) [compound 186] | 343
55 | COc1cc(F)ccc1-c1cc(Cl)cc(C(CC(=O)O)c2ncc(C)s2)c1 (centres unmarked) [compound 90] | 119
56 | COc1ccc(-c2cncc(C(CC(=O)O)c3nnc(C)o3)c2)c(OC)c1 (centres unmarked) [compound 194] | 7140
57 | COc1ccc(CO)cc1-c1cccc(C(CC(=O)O)c2nnc(C)o2)c1 (centres unmarked) [compound 141] | 72
58 | COc1c(F)cc(F)cc1-c1cccc(C(CC(=O)O)c2nccs2)c1 (centres unmarked) [compound 36] | 467
59 | COc1ccc(C(C)(C)C)cc1-c1cncc(C(CC(=O)O)c2nnc(C)o2)c1 (centres unmarked) [compound 182] | 452
60 | COc1cccc(F)c1-c1cccc(C(CC(=O)O)c2nnc(C)o2)c1 (centres unmarked) [compound 145] | 116
61 | COc1cc(C)cc(OC)c1-c1cc(F)cc(C(CC(=O)O)c2ncc(C)s2)c1 (centres unmarked) [compound 99] | 28
62 | COc1cccc(C(=O)N2CCCC2)c1-c1cc(Cl)cc(C(CC(=O)O)c2nnc(C)o2)c1 (centres unmarked) [compound 171] | 4210
